This is an account of results in paper PMC4552634, “A New Set of Chemical Starting Points with Plasmodium falciparum Transmission-Blocking Potential for Antimalarial Drug Discovery” (PLoS ONE, 2015).

Read-outs that look alike come from different tables or passages of the source. Where only a bound is given, the exact number is not on record here.

The subject of one data set is HepG2 cells. Briefly: Cytotoxicity in HepG2 cells (intracellular ATP, ATPlite, 48 h). The class given is cell-based, human. The note with it: HepG2 cells; IC50 per ratio column head; unit inferred. Background: In ATP-based viability assays light output follows the ATP content of the culture.
Data set [1] deals with P. falciparum stage V gametocytes. Briefly: Gametocytocidal ATP bioluminescence assay (single point 5 μM and 1 μM, dose-response). The class given is cell-based, Plasmodium falciparum. The conditions noted are these: for Ratio IC50 HepG2/IC50 P. falciparum: IC50 HepG2 divided by IC50 P. falciparum gametocytes.
Method: Purified stage IV-V gametocytes were obtained as previously described [10]. Single point ATP bioluminescence assay and dose–response of positive hits was determined in accordance with the previously published protocol [10].
For data set [2], the system named is luciferase reaction (BacTiter-Glo). In words: Interference assay (inhibition of the BacTiter-Glo luciferase reaction). The format is biochemical. Further details: concentration or dose not given beside the values. The conditions noted are these: ATP interference assay. The method, then: To discard possible false-positive results, we performed an interference assay in parallel. […] […]. The ATP solution was made by dissolving ATP powder (ATP standard from the ATPlite 1 step assay kit, reference 6016731, Perkin Elmer) in culture medium. The positive control used was the Luciferase Inhibitor I Calbiochem (Merck, 119113) at 100 μM.

The test system of data set [3] is P. falciparum asexual stages. The conditions noted are these: asexual stages; TCAMS data; read-out: IC50 asexual; cited from earlier work.
[4] abbreviates: P. falciparum gametocytes, average, read-out: IC50 Pf Gametocytes average, IC50 (µM) average.
Where [5] appears, read: sexual stages (gametocytes), dose-response, read-out: IC50 sexual.

The term IC50 denotes the concentration that gives 50% inhibition. `O=C(Nc1ccc2c(c1)CCCN2S(=O)(=O)c1cccs1)c1cc([N+](=O)[O-])ccc1Cl` [TCMDC-125153]: the IC50 in the data set on HepG2 cells is > 25000 nM; in data set [1] (setting [4]), 2.66 µM; in data set [1] (setting [5]), 2.66 µM; in data set [3], 845 nM. For the same compound, the “Ratio IC50 HepG2/IC50 P. falciparum” value in data set [1] is >9. In data set [2], the “% Control luminiscence” value stood at 100%.
With `COc1cc(NC(=O)c2sc(-c3ccc(Cl)cc3)cc2NC(=O)c2ccncc2)ccc1OCCN1CCCC1` [TCMDC-135398], the IC50 is 3230 nM in the data set on HepG2 cells, 0.15 µM in data set [1] (setting [4]) and 31 nM in data set [3]. Besides, the “% Control luminiscence” value in data set [2] turned out to be 100%.
As for `CS(=O)(=O)c1cccc2sc(N3CCN(C(=O)c4ccc([N+](=O)[O-])o4)CC3)nc12` [TCMDC-124930], the results for the IC50 (in the data set with HepG2 cells; in data set [1] (setting [4]); in data set [3]) were 18800 nM, > 10 µM and 1240 nM, respectively. In addition, the “Ratio IC50 HepG2/IC50 P. falciparum” value in data set [1] is reported as <1.9. Besides, in data set [2], the “% Control luminiscence” value came to 100%.
On to `CCCCC(NCC)c1ccc(OCCOc2ccc(C(CCCC)NCC)cc2)cc1` (stereo not drawn) [TCMDC-137612], for which the IC50 in the data set on HepG2 cells was 6100 nM; in data set [1] (setting [4]) it was 0.42 µM; in data set [1] (setting [5]), 0.423 µM; in data set [3], 930 nM. Also, the “Ratio IC50 HepG2/IC50 P. falciparum” value in data set [1] came to 14. Also, the “% Control luminiscence” value in data set [2] is listed as 100%.
In the case of `CC(C)CNCc1ccc(-c2cccc(CN(CCN(C)C)C(=O)CCC3CCCC3)c2)cc1` [TCMDC-140553], the IC50 in the data set with HepG2 cells is 5500 nM; in data set [1] (setting [4]), 0.54 µM; in data set [3] it was 809 nM. Besides, the “Ratio IC50 HepG2/IC50 P. falciparum” value in data set [1] is 10. Also, the “% Control luminiscence” value in data set [2] was found to be 100%.
`O=C(Nc1cccc(Oc2ccccc2)c1)N[C@H]1CCN(Cc2ccc(OCCCN3CCCCC3)cc2)C1` [TCMDC-141785]: the results for the IC50 (in the data set with HepG2 cells; in data set [1] (setting [4]); in data set [3]) were 3520 nM, 1.13 µM and 724 nM, respectively. Besides, the “Ratio IC50 HepG2/IC50 P. falciparum” value in data set [1] came to 3. In addition, the “% Control luminiscence” value in data set [2] is given as 100%.
`CN(CCCNCc1ccc2ccccc2c1)CCCNCc1ccc2ccccc2c1` [TCMDC-137908]: the IC50 in the data set with HepG2 cells was 4680 nM; in data set [1] (setting [4]), 0.05 µM; in data set [3] it was 391 nM. For the same compound, in data set [1], the “Ratio IC50 HepG2/IC50 P. falciparum” value is 94. Further, the “% Control luminiscence” value in data set [2] was 100%.
As to `CCCCCCCN1CC[C@@H](CCCc2ccnc3ccc(OC)cc23)[C@@H](CCN)C1` [TCMDC-139278], the IC50 is 2980 nM in the data set on HepG2 cells, 0.27 µM in data set [1] (setting [4]), 0.267 µM in data set [1] (setting [5]) and 748 nM in data set [3]. The “Ratio IC50 HepG2/IC50 P. falciparum” value in data set [1] is listed as 11. Further, the “% Control luminiscence” value in data set [2] is 100%.
Turning to `Nc1nc(N)c2c(ccc3c2ccn3Cc2ccc(-c3ccccc3)cc2)n1` [TCMDC-137813], the IC50 in the data set with HepG2 cells is 1600 nM; in data set [1] (setting [4]) it was 1.45 µM; in data set [1] (setting [5]) it was 1.45 µM; in data set [3] it was 48 nM. The “Ratio IC50 HepG2/IC50 P. falciparum” value in data set [1] was determined as 1.1. In addition, the “% Control luminiscence” value in data set [2] is 100%.
`Cc1occc1C(=O)Nc1nc(-c2ccccn2)nc2ccsc12` [TCMDC-135244]: the IC50 is < 1560 nM in the data set on HepG2 cells, 0.3 µM in data set [1] (setting [4]), 0.303 µM in data set [1] (setting [5]) and 899 nM in data set [3]. In addition, in data set [1], the “Ratio IC50 HepG2/IC50 P. falciparum” value was <5. Besides, the “% Control luminiscence” value in data set [2] was 99%.
As for `CCN(CC)CCCNc1nccc(N2CCc3ncnc(Nc4ccc(OCc5cccc(F)c5)c(Cl)c4)c3C2)n1` [TCMDC-135406], the IC50 in the data set with HepG2 cells is 5580 nM; in data set [1] (setting [4]), 0.72 µM; in data set [1] (setting [5]) it was 0.715 µM; in data set [3], 111 nM. The “Ratio IC50 HepG2/IC50 P. falciparum” value in data set [1] is on record as 8. In addition, the “% Control luminiscence” value in data set [2] stood at 100%.
As for `C[C@H](Cc1ccc(C[C@@H](C)NC[C@H](O)c2cccc(Cl)c2)cc1)NC[C@H](O)COc1ccccc1` [TCMDC-131549], the IC50 is 4700 nM in the data set with HepG2 cells, 0.92 µM in data set [1] (setting [4]), 0.923 µM in data set [1] (setting [5]) and 1170 nM in data set [3]. Besides, in data set [1], the “Ratio IC50 HepG2/IC50 P. falciparum” value turned out to be 5. The “% Control luminiscence” value in data set [2] is given as 100%.
